Measured values taken from the NIST ThermoML archive (doi:10.1021/acs.jced.7b00020).
± gives the expanded uncertainty stated by the source.

Test: wn = mass fraction of the nth substance listed
Conditions: 100 kPa, Liquid, Pycnometric method

mass density (288.15 K, w1 = 0.436) [kg/m3] | mass density (318.15 K, w1 = 0.5992) [kg/m3] | mass density (288.15 K, w1 = 0.1686) [kg/m3] | mass density (318.15 K, w1 = 0.2685) [kg/m3] | SMILES
1388.4 ± 3.4 | 1573.3 ± 3.8 |  |  | O=P([O-])(O)O.[Na+] [sodium dihydrogen phosphate] + O
 |  | 1126.4 ± 2.6 | 1204.6 ± 2.8 | O=P([O-])(O)O.[K+] [monopotassium phosphate] + O
